From ChEMBL document CHEMBL1201862, “PubChem BioAssay data set” (2004)
Activity calls are given as the source filed them.

Experiments:
[1] = cells; assay type: functional
[2] = Vero E6 cell cytotoxicity, dose response, cytotoxicity control for non-replicating M. tuberculosis project, secondary assay (AID 492998); assay type: functional, VeroE6; conditions: Vero C1008
[3] = molecular target: T1, DNA repair and recombination protein RAD54-like (Homo sapiens, UniProt Q92698); experiment: inhibitors of human RAD54 branch migration, confirmation, biochemical, fluorescence, cherry-picked samples, dose series (AID 651657); assay type: functional
T1 sequence (Q92698 whole entry): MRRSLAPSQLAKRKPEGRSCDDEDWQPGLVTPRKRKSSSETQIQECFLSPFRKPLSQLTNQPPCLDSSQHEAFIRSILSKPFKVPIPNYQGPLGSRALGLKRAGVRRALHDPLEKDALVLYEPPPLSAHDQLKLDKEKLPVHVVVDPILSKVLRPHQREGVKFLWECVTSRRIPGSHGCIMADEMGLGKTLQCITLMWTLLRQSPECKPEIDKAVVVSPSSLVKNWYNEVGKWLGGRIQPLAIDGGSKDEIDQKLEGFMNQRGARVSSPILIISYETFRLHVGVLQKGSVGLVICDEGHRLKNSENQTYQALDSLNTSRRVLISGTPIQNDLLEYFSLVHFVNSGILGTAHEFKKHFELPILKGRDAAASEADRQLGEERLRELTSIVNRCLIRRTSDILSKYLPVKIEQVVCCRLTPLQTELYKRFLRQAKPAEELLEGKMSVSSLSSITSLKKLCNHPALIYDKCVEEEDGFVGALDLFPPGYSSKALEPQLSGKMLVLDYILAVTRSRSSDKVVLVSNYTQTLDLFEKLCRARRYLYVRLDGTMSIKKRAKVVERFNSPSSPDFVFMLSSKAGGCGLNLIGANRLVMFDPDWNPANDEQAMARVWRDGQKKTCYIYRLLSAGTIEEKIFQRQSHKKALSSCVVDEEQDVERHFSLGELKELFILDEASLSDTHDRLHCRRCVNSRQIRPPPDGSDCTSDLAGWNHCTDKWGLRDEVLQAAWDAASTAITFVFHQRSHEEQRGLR

[4] = tested on: Vero; experiment: Vero cell cytotoxicity, cytotoxicity control for flavivirus capping enzyme inhibitors (AID 588742); assay type: functional; conditions: Chlorocebus sabaeus
[5] = molecular target: T2, Fatty acid synthase (Homo sapiens, UniProt P49327); experiment: FAS thioesterase domain inhibitors, dose response, biochemical, endpoint fluorescence intensity, uHTS hits (AID 624327); assay type: functional;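 note: fluorescence from hydrolysis of an O-methyl fluorescein acyl ester substrate by the enzyme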
[6] = molecular target: T2, Fatty acid synthase; experiment: FAS thioesterase domain inhibitors, dose response, biochemical, kinetic fluorescence intensity (AID 624326); assay type: functional;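 note: rate of fluorescence rise from hydrolysis of a fluorogenic O-methyl fluorescein ester substrate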
[7] = molecular target: Induced myeloid leukemia cell differentiation protein Mcl-1 (Homo sapiens, UniProt Q07820); assay type: functional
[8] = molecular target: T3, Protein RecA (Mycobacterium tuberculosis, UniProt P9WHJ3); experiment: Fluorescence Cell-Free Homogeneous Dose Retest to Identify Inhibitors of RecA-Intein Splicing Activity. [Related pubchem assays (depositor defined):AID2097, AID2223, AID489010, AID492950]; assay type: functional
T3 sequence (P9WHJ3 whole entry): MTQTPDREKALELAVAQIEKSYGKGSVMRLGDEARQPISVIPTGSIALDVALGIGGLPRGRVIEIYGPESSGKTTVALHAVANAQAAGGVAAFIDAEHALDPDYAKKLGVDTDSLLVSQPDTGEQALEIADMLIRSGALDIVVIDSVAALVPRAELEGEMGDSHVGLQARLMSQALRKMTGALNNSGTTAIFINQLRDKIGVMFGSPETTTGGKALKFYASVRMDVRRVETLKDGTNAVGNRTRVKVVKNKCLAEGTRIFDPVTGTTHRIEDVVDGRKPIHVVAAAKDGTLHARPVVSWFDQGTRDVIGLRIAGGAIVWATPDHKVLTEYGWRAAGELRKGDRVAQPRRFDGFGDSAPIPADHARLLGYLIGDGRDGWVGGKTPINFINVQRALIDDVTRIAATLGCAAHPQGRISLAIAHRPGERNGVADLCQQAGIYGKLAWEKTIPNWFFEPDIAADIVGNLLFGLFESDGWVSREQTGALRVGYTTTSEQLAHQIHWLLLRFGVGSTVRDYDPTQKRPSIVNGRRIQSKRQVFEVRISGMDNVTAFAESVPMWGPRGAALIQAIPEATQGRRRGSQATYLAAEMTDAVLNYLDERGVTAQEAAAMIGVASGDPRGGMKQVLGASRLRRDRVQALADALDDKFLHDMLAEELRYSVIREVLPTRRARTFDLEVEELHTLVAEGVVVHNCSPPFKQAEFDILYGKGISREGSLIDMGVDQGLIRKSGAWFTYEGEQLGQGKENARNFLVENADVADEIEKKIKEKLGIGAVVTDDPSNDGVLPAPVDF

[9] = molecular target: T4, Calpain-2 catalytic subunit (Sus scrofa, UniProt P43367); experiment: pig calpain II inhibitor potency, dose response, biochemical, fluorogenic peptide substrate (AID 1420); assay type: functional
T4 sequence (P43367 whole entry): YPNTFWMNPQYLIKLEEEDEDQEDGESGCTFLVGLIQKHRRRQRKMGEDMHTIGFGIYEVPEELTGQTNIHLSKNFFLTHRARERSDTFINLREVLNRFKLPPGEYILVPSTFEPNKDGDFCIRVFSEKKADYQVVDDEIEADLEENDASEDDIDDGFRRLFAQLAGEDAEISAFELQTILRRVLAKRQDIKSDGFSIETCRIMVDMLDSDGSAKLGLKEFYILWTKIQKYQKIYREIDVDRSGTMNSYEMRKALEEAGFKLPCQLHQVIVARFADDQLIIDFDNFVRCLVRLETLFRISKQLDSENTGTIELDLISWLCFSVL

[10] = molecular target: T5, Replicative DNA helicase DnaB (Mycobacterium tuberculosis, UniProt P9WMR3); experiment: DnaB intein splicing inhibitors, dose response, biochemical, cell-free fluorescence (AID 449749); assay type: functional
T5 sequence (P9WMR3 whole entry): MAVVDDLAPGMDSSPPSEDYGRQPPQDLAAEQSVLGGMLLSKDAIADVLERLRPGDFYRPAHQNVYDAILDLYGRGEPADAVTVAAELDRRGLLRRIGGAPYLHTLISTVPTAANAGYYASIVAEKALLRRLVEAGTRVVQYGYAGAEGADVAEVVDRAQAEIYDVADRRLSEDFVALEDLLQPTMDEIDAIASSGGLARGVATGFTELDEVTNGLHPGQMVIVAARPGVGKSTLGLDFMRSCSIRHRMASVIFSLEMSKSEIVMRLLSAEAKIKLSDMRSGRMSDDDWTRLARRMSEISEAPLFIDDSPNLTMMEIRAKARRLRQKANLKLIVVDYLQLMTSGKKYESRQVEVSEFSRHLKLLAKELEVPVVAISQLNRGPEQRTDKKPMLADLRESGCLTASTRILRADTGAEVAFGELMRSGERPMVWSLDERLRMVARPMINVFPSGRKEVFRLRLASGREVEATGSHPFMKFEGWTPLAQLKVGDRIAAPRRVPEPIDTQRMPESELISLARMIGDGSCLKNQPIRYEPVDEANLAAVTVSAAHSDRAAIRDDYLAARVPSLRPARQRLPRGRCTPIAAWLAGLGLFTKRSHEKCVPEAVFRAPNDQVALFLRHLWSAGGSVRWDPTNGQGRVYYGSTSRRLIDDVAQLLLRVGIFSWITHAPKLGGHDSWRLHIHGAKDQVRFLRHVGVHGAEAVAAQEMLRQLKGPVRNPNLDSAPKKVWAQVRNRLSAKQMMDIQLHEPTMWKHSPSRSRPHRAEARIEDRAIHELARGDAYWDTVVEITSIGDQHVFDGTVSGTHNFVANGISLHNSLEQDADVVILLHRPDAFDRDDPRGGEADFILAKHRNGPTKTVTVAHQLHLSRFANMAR

[11] = molecular target: Glucose-6-phosphate 1-dehydrogenase (Homo sapiens, UniProt P11413); experiment: human G6PD enzyme inhibitors, dose response, selectivity assay for P. falciparum G6PD inhibitor project, biochemical, fluorescence (AID 504792); assay type: functional
[12] = molecular target: Beta-galactosidase (Escherichia coli, UniProt Q8VNN2); experiment: PubChem AID 485352; assay type: functional
[13] = molecular target: T6, Type-1 angiotensin II receptor (Homo sapiens, UniProt P30556); experiment: AT1 receptor antagonists, dose response, selectivity assay for APJ receptor antagonist project, cell-based, uHTS hits (AID 463214); assay type: functional;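 note: antagonist potency against angiotensin II stimulated AT1 response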
T6 sequence (P30556 whole entry): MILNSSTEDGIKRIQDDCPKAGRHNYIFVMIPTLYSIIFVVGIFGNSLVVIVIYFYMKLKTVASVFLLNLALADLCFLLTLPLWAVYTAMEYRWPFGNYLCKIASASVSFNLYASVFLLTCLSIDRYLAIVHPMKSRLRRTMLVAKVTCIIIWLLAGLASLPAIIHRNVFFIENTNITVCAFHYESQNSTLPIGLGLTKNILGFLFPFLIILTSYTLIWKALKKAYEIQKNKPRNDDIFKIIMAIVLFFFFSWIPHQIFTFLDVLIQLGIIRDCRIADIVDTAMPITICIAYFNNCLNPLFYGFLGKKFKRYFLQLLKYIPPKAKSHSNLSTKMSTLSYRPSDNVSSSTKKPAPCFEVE

[14] = molecular target: T7, Zinc finger protein mex-5 (Caenorhabditis elegans, UniProt Q9XUB2); experiment: MEX-5/TCR-2 RNA interaction inhibitors, dose response, biochemical, C. elegans, fluorescence polarization (AID 1960)
T7 sequence (Q9XUB2 whole entry): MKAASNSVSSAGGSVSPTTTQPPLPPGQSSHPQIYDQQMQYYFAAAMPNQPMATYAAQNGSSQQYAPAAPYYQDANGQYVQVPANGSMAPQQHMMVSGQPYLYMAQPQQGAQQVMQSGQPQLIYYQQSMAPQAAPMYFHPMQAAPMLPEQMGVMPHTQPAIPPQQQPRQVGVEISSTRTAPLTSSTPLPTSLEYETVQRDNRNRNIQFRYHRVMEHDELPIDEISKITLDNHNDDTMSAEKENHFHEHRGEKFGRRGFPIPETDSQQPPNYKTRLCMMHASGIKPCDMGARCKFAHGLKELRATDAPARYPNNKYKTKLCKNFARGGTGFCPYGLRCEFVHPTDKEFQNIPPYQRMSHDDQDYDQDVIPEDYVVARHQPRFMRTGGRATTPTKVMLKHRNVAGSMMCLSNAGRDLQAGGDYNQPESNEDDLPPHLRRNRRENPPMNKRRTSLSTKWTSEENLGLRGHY

[15] = molecular target: Large T antigen (Simian virus 40, UniProt P03070); assay type: functional, Betapolyomavirus macacae;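 note: Confirmatory-stage PubChem screen for compounds that inhibit SV40 T antigen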
[16] = molecular target: Nonstructural protein 1 (Influenza A virus, UniProt Q194T2); assay type: functional, Influenza A virus (A/California/07/2009(H1N1))
[17] = molecular target: T8, RNA-binding protein pos-1 (Caenorhabditis elegans, UniProt G5EF15); experiment: inhibitors of POS-1/mex-3 RNA binding, dose response, biochemical, fluorescence polarization (AID 1964);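 note: purified POS-1 fused to maltose binding protein made in E. coli; potency of compounds blocking POS-1 binding to fluorescent RNA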
T8 sequence (G5EF15 whole entry): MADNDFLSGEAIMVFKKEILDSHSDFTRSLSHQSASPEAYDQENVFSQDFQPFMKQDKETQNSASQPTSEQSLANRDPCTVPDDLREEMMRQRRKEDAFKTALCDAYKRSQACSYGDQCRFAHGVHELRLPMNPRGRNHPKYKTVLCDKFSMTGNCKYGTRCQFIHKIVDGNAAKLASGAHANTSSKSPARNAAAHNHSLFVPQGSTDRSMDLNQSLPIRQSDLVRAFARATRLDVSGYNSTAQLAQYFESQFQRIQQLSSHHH

[18] = molecular target: Genome polyprotein (dengue virus type 2, UniProt P29990); experiment: Dengue-2 NS5 methyltransferase inhibitors, primary screen, biochemical, confirmation dose response (AID 588689); assay type: functional

Glucose-6-phosphate 1-dehydrogenase, sequence (P11413 whole entry): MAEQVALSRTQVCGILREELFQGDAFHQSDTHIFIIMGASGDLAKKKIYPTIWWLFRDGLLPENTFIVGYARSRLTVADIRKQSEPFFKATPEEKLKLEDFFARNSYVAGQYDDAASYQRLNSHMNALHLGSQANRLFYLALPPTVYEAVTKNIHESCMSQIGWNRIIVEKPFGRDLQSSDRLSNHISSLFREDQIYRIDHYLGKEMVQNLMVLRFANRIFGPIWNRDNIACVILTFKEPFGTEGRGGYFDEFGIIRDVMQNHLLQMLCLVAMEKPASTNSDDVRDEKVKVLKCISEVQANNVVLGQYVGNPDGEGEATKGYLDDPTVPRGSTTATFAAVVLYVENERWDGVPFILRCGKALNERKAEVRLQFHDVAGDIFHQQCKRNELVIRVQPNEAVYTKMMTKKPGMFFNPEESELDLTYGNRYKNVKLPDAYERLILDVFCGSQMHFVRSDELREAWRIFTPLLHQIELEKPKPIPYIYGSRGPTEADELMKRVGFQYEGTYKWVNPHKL
T2 sequence (P49327 whole entry, the tested form may be a part): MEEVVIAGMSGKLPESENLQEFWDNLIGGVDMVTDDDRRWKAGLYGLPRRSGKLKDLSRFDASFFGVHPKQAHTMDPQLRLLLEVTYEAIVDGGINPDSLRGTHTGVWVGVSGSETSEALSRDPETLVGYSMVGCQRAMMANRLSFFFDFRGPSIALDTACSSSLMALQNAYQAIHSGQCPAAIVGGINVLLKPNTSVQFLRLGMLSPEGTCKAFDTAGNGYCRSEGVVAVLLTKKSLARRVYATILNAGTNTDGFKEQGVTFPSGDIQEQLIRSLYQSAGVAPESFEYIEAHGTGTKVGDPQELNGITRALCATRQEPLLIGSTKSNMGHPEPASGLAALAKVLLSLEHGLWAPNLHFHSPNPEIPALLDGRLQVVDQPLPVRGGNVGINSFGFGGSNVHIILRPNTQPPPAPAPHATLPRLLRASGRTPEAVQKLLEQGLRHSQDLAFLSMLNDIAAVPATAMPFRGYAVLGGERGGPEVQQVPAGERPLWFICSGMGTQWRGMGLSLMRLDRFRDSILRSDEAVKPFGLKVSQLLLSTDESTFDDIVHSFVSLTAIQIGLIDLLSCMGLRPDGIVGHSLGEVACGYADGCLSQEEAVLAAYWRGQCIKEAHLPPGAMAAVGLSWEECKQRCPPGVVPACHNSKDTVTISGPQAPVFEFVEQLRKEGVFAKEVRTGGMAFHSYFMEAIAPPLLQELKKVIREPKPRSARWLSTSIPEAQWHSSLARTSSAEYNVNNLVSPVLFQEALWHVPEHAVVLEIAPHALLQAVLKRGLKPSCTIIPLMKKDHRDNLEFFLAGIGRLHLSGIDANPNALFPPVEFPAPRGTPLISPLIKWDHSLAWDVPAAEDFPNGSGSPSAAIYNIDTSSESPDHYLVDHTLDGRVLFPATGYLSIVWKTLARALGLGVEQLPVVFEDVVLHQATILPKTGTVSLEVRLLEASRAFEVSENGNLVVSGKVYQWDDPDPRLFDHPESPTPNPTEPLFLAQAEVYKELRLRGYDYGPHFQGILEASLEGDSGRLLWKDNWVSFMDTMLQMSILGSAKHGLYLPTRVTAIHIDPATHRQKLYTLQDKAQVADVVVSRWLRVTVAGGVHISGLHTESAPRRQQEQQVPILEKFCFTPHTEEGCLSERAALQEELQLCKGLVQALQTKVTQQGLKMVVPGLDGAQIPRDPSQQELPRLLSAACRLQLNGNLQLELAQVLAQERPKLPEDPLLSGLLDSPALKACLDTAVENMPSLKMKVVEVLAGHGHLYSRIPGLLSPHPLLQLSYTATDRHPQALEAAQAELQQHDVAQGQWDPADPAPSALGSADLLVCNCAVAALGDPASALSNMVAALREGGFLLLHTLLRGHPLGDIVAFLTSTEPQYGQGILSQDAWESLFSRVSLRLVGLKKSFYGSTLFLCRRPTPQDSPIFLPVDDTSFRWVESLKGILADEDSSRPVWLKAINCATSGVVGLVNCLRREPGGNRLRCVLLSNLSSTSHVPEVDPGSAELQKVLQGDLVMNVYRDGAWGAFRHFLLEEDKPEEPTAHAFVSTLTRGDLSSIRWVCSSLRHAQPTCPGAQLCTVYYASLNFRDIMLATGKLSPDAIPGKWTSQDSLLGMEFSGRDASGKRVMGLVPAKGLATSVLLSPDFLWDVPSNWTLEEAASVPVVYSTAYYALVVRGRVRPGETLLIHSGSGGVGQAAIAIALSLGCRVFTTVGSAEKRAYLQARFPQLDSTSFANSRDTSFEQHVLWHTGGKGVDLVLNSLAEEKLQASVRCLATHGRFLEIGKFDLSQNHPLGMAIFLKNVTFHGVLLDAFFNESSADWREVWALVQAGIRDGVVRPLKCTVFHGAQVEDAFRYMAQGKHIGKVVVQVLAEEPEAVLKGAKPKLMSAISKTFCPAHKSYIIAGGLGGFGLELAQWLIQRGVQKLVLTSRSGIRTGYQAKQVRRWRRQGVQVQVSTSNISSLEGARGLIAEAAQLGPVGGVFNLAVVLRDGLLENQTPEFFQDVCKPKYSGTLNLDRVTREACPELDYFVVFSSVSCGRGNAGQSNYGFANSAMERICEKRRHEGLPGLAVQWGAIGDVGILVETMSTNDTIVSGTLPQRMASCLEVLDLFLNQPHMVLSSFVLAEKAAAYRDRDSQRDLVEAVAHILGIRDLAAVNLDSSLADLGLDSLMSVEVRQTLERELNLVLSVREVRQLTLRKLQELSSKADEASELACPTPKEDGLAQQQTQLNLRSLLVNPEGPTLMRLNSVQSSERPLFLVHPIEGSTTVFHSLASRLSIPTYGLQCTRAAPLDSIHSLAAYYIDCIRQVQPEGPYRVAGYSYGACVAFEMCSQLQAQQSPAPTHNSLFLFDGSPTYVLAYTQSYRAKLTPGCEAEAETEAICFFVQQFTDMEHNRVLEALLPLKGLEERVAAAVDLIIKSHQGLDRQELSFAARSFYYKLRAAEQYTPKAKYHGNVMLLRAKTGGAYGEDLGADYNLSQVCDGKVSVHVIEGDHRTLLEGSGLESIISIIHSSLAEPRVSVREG
Beta-galactosidase, sequence (Q8VNN2 whole entry): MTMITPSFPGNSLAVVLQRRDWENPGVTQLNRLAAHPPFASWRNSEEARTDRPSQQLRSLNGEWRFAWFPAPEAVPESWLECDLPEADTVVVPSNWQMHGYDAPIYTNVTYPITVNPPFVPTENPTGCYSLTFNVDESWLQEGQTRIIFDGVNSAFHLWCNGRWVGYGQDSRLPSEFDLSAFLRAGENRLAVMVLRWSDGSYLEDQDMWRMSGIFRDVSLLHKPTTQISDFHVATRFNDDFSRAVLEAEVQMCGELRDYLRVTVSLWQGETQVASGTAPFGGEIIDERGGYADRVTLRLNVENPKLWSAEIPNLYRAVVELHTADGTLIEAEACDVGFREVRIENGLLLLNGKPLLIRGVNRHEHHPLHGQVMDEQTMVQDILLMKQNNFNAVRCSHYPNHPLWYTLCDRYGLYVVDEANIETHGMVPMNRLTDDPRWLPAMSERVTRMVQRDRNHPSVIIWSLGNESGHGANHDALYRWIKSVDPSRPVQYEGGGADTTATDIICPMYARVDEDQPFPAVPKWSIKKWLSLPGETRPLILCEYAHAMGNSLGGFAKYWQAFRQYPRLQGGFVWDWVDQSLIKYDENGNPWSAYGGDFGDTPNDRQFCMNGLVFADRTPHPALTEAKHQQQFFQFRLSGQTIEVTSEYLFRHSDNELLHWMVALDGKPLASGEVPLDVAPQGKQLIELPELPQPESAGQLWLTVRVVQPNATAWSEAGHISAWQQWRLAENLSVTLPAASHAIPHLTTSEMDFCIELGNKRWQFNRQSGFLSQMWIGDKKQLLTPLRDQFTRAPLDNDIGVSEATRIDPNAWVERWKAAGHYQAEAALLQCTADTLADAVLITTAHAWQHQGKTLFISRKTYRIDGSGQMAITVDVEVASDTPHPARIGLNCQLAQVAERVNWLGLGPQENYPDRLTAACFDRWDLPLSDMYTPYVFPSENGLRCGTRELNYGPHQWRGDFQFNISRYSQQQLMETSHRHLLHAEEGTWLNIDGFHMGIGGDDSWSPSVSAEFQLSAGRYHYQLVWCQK
Large T antigen, sequence (P03070 whole entry): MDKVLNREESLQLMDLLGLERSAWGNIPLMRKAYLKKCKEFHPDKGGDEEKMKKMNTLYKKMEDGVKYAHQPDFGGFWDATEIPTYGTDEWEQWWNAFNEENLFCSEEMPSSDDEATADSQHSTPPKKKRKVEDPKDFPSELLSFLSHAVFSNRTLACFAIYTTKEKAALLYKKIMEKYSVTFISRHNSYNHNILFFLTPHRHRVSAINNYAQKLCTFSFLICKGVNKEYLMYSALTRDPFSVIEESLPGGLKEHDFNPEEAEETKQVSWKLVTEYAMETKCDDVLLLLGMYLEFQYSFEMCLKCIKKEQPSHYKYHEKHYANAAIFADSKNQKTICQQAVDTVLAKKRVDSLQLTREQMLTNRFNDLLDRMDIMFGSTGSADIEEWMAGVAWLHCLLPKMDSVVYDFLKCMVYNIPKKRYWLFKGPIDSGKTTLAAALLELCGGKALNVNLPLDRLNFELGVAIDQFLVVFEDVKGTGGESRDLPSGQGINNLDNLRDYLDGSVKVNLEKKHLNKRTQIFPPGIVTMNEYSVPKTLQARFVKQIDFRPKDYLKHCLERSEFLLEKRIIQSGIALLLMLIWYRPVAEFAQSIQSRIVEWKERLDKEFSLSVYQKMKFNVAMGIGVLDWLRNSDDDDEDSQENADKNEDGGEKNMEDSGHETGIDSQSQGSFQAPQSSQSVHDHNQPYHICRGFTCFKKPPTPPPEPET
Induced myeloid leukemia cell differentiation protein Mcl-1, sequence (Q07820 whole entry): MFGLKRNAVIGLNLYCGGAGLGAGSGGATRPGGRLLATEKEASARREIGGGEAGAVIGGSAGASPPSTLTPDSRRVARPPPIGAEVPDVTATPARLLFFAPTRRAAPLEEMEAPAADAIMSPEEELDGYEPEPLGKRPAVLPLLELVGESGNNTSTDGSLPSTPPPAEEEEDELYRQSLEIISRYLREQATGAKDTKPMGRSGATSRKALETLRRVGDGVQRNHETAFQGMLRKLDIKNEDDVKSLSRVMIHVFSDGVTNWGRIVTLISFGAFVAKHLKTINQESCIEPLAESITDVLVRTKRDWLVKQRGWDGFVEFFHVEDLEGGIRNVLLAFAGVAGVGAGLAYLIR

## O=C(CCNc1cccc(Cl)c1)c1ccco1
[1]
  IC50: 18 µM (active)
[2]
  CC50: 18.8 µM (active)

## CCOCCCN=C(S)Nc1ccc2nc(N3CCCC3)cc(C)c2c1
[3]
  AC50: 100 µM (inactive)

## CCOc1ccccc1N1CCN(C2=C(NS(=O)(=O)c3cccs3)C(=O)c3ccccc3C2=O)CC1
[4]
  CC50: > 40 µM (active)

## C=CCNC1=NN=C(c2cc(C)n(CC=C)c2C)CS1
[4]
  CC50: > 40 µM (active)

## Cc1nnc(Sc2cc(NCCO)c([N+](=O)[O-])c3nonc23)s1
[5]
  IC50: 6.34 µM (active)
[6]
  IC50: 5.35 µM (active)
[7]
  IC50: 6.12 µM (active)
[8]
  EC50: 12.4 µM (active)
[9]
  IC50: > 50 µM (not active)
[10]
  AC50: 19.8 µM (inconclusive)
[11]
  IC50: > 80 µM (inactive)

## Cc1c(C(=O)N(Cc2ccccc2Cl)C2CCS(=O)(=O)C2)oc2ccccc12 (stereo unspecified)
[11]
  IC50: 40.3 µM (inactive)

## Cc1cc(C)nc(NNS(=O)(=O)c2ccc(F)c(Cl)c2)n1
[12]
  EC50: > 40 µM (inactive)
[13]
  IC50: 23.9 µM (not active)

## Cc1ccc(C(=O)CNc2cc(C)ccc2C)cc1
[12]
  EC50: > 40 µM (inactive)
[13]
  IC50: 9.85 µM (active)

## CCN(CC)CCCNC(=O)C1CCN(c2ncnc3c2sc2cccc(F)c23)CC1
[3]
  AC50: 52 µM (active)

## Cc1ccc(C(=O)Nc2nnc(-c3ccncc3)o2)cc1
[1]
  IC50: 8.2 µM (active)
[2]
  CC50: > 20 µM (active)

## COc1cc([N+](=O)[O-])ccc1-c1ccc(/C=C2\C(=O)ON=C2c2ccccc2)o1
[4]
  CC50: 22.1 µM (active)

## CCN(CC)C(=O)c1ccc2c(c1)C1C(Cl)C(Sc3ccccc3[N+](=O)[O-])CC1C(C(=O)O)N2 (stereo unspecified)
[14]
  EC50: 15.4 µM (inconclusive)
[15]
  IC50: 35.4 µM (active)
[16]
  IC50: 17.7 µM (active)
[8]
  EC50: 17 µM (active)
[17]
  EC50: > 300 µM (inconclusive)
[18]
  IC50: 59.1 µM (active)
[10]
  AC50: 4.63 µM (active)

## COc1cc(N)c2ncccc2c1Cl
[11]
  IC50: 69.4 µM (inactive)

## COc1ccc(OCc2nnc3n2N=C(c2ccccc2)C(CC(=O)O)S3)cc1 (stereo unspecified)
[11]
  IC50: > 80 µM (inactive)

## CCN1CCc2c(sc(NC(=O)c3ccc(C(=O)c4ccccc4)cc3)c2C(N)=O)C1
[3]
  AC50: 36.6 µM (active)
